Like-named read-outs stand apart in the source and are kept apart here.
Key:
[1] = target: human norepinephrine transporter (NET) (Homo sapiens (Human), UniProt P23975); assay: Binding assay to human norepinephrine transporter (NET) ([3H]-Nisoxetin); settings: Table 2, dual compounds; [3H]-Nisoxetin binding
How it was run: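 NET-enriched membranes (5 μg) incubated with 5 nM [3H]-nisoxetin in 50 mM Tris-HCl, 120 mM NaCl, 5 mM KCl, pH 7.4, 60 min at 4 °C. Bound ligand separated by filtration on PEI-soaked GF/C and counted by scintillation; nonspecific binding defined with 1 μM competitor.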

[2] = target: human α2δ-1 subunit of Cav2.2 calcium channel (Homo sapiens (Human), UniProt P54289); assay: Binding assay to human α2δ-1 subunit of Cav2.2 calcium channel ([3H]-Gabapentin); settings: read-out: Ki (nM) α2δ-1
Chain of human α2δ-1 subunit of Cav2.2 calcium channel (P54289 25-1103): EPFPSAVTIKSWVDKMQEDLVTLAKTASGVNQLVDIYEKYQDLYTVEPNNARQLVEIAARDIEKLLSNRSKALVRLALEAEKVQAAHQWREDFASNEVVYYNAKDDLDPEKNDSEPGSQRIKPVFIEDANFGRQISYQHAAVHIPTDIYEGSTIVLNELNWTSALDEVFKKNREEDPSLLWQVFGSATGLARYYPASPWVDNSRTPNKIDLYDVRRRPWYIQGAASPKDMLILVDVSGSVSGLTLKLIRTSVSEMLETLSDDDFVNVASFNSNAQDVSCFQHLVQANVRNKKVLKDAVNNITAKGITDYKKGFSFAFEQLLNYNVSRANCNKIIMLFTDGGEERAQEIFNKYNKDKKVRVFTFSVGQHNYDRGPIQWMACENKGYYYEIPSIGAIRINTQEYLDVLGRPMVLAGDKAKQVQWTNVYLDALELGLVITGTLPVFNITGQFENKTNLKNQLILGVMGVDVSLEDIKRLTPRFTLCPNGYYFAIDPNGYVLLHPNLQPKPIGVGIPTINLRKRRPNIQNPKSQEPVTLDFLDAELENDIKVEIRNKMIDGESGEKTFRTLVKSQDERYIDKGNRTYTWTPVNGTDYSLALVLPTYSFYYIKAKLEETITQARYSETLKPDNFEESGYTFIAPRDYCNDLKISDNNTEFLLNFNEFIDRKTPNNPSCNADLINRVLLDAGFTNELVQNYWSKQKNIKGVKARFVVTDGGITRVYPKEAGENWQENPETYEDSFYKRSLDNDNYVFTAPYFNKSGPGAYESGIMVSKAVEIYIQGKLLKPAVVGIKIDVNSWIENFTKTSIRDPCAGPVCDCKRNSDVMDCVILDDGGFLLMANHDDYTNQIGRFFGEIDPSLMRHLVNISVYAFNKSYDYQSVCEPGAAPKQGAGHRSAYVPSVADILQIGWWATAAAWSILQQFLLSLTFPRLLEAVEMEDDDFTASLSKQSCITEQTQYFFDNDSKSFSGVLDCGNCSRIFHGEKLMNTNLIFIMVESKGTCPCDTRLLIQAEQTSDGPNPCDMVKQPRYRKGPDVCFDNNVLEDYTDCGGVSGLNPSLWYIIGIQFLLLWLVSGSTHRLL
How it was run: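 Radioactivity on dried GF/C filters quantified by scintillation after filtration and three cold Tris-HCl (pH 7.4) washes. Incubation ran 60 min at 27° C with [3H]-gabapentin; 10 μM pregabalin gave nonspecific binding.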

[3] = Table 2, dual compounds, [3H]-Gabapentin binding
[4] = binding to α2δ-1, [3H]-Gabapentin

Chain of human norepinephrine transporter (NET) (P23975 whole entry): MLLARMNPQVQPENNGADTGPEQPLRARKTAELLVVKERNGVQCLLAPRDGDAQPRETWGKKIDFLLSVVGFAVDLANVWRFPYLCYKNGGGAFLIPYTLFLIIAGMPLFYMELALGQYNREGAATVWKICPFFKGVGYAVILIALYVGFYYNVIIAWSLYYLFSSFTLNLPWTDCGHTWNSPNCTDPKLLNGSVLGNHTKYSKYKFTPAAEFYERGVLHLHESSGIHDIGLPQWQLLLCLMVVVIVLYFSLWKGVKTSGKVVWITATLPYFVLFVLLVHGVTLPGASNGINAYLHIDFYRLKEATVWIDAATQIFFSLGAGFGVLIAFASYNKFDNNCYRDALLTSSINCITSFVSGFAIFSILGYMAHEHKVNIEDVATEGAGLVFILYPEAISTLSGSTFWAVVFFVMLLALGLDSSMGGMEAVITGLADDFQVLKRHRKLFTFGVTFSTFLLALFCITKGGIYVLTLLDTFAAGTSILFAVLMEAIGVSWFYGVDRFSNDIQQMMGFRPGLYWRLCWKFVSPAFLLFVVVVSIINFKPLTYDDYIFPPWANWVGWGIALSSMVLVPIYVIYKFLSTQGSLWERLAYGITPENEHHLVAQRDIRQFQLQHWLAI

Row | SMILES | Ki [1] [nM] | Ki [2, 3] [nM] | Ki [2, 4] [nM]
1 | CNCCC(Oc1ccc(CN2CCN(C)c3ncncc3C2=O)cc1)c1ccccc1 (stereo not drawn) [Example 430, 9-methyl-6-(4-(3-(methylamino)-1-phenylpropoxy)benzyl)-6,7,8,9-tetrahydro-5H-pyrimido[4,5-e][1,4]diazepin-5-one] | < 100 | 500 to 3000 | 500 to 3000
2 | CNCC[C@H](Oc1ccc(CN2CCN(C)c3ncncc3C2=O)cc1)c1ccccc1 [Example 433, (S)-9-methyl-6-(4-(3-(methylamino)-1-phenylpropoxy)benzyl)-6,7,8,9-tetrahydro-5H-pyrimido[4,5-e][1,4]diazepin-5-one] | < 100 | 500 to 3000 | 500 to 3000
3 | CNCC[C@@H](Oc1ccc(CN2CCN(C)c3ncncc3C2=O)cc1)c1ccccc1 [Example 434, (R)-9-methyl-6-(4-(3-(methylamino)-1-phenylpropoxy)benzyl)-6,7,8,9-tetrahydro-5H-pyrimido[4,5-e][1,4]diazepin-5-one] | 100 to 500 | > 3000 | > 3000
4 | CCNc1ncc2c(n1)N(C)CCN(c1cccc(-c3nnc(CN4CCC(c5cccc(O)c5)(N(C)C)CC4)o3)c1)C2=O [Example 442, 6-(3-(5-((4-(dimethylamino)-4-(3-hydroxyphenyl)piperidin-1-yl)methyl)-1,3,4-oxadiazol-2-yl)phenyl)-2-(ethylamino)-9-methyl-6,7,8,9-tetrahydro-5H-pyrimido[4,5-e][1,4]diazepin-5-one] | < 100 | < 100 | < 100

Further lines, results first:

Row | Ki [1] [nM] | Ki [2, 3] [nM] | Ki [2, 4] [nM] | SMILES
5 | < 100 | > 3000 | > 3000 | CNCCC(Oc1ccc(CN2CCN(C)c3nc(C)ncc3C2=O)cc1)c1ccccc1 (stereo not drawn) [Example 425, 2,9-dimethyl-6-(4-(3-(methylamino)-1-phenylpropoxy)benzyl)-6,7,8,9-tetrahydro-5H-pyrimido[4,5-e][1,4]diazepin-5-one]
6 | < 100 | 500 to 3000 | 500 to 3000 | CCc1ncc2c(n1)N(C)CCN(Cc1ccc(OC(CCNC)c3ccccc3)cc1)C2=O (stereo not drawn) [Example 426, 2-ethyl-9-methyl-6-(4-(3-(methylamino)-1-phenylpropoxy)benzyl)-6,7,8,9-tetrahydro-5H-pyrimido[4,5-e][1,4]diazepin-5-one]

From patent US10590140B2, “Tetrahydropyrimidodiazepine and dihydropyridodiazepine compounds for treating pain and pain related conditions” (ESTEVE PHARMACEUTICALS, S.A., priority 2016, dated 2020)
